Results reported in patent US20260085062A1, “NOVEL COMPOUNDS AS CK2 INHIBITORS” (Cambridge Enterprise Limited, priority 2022, published 2026).

Key:
intracellular CK2α = molecular target: T1, intracellular CK2α (Homo sapiens, UniProt P19784); assay: Cell-based NanoBRET assay for inhibitor binding to intracellular CK2α; conditions: HCT116 cells transiently transfected with CSNK2A2-NanoLuc fusion vector; Tracer K-5; 2 h; read-out: Assay 3: NanoBRET ™ assay for binding to intracellular CK2α
T1 construct: host or cells: HCT116 (ATCC CCL-247)
Experimental: This assay used the NanoBRET™ System (Promega), an energy transfer technique designed to measure molecular proximity in living cells. The assay measured the apparent affinity of test compounds by competitive displacement of a NanoBRET™ tracer reversibly bound to a NanoLucR luciferase CK2α fusion protein in cells. A fixed concentration of tracer was added to cells expressing the desired NanoLucR-CK2α fusion protein to generate a BRET reporter complex. […] Donor emission wavelength (450 nm) and acceptor emission wavelength (610 nm or 630 nm) were measured on the Envision (Perkin-Elmer) and BRET ratio calculated for data analysis: BRET Ratio=(Acceptorsample/Donorsample)×1,000. • 7.

CK2α = molecular target: T2, CK2α (Homo sapiens, UniProt P68400); assay: Biochemical assay for inhibitors of CK2α kinase activity (ADP-Glo); conditions: 0.2 nM CK2α, 50 μM peptide substrate, 15 μM ATP, read-out: Assay 1: CK2α Enzyme IC50
T2 construct: CK2α (residues 2-329) was produced in Escherichia coli BL21 (DE3) for kinase activity screening; His6 (N, cleaved yes); made in house; host or cells: Escherichia coli BL21 (DE3)
T2 sequence (P68400 2-329): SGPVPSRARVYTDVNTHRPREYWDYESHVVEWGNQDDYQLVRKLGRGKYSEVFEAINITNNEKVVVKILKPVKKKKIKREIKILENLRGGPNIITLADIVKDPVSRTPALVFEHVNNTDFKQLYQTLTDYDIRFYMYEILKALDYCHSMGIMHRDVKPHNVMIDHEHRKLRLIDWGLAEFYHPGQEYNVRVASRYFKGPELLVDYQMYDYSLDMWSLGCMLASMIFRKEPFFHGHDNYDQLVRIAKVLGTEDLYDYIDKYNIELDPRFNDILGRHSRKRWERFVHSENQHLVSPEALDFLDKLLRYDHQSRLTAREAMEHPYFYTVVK
Experimental: The inhibitory activity of putative kinase inhibitors and the potency of selected compounds were determined using ADP-Glo™ assay. The kinase reaction was performed in the presence of excess peptide substrate and ATP at a concentration equivalent to Km. Upon termination of the kinase reaction, remaining ATP was depleted leaving only ADP reaction product, which was converted back to ATP with a coupled luciferin/luciferase reaction. The luminescent output from the coupled reaction was quantified and correlated with the kinase activity. […] Single colonies of the cells were grown in 6×1 L of 2×TY with 100 μg/mL ampicillin at 37° C. […] The cells were incubated overnight at 25° C. then harvested by centrifugation at 4,000 g for 20 minutes. The cell pellets were suspended in 20 mM Tris, 500 mM NaCl, pH 8.0 and lysed using a high pressure homogenizer. Protease inhibitor cocktail tablets (one tablet per 50 mL extract; Roche Diagnostics) and DNase I were then added. The crude cell extract was then centrifuged at 10,000 g for 45 minutes, the supernatant was filtered with a 0.22 μm filter. The soluble supernatant was applied on a Ni Sepharose Fast Flow6 column at pH 8.0, washed and eluted in 20 mM Tris pH 8.0, 500 mM NaCl, 200 mM imidazole. […] The cleaved protein was further purified on a Sepharose Q HP anion-exchange column and the main peak fraction from this column was further purified by gel filtration on a Superdex 75 16/60 HiPrep column equilibrated with Tris 20 mM, pH 8.0, 500 mM NaCl. Pure protein was concentrated to 15 mg/mL and flash frozen in liquid nitrogen. […] The assay was conducted as follows: • 1. […] After 120 minutes, the reaction was stopped by addition of 5 pl ADP-Glo reagent (Promega V9102) and the plate incubated at RT for a further 60 minutes. • 5. 10 μL of Kinase Detection reagent (Promega V9102) was added to assay plate and incubated for a further 30 minutes prior to reading luminescence on an Envision (Perkin-Elmer). Data was analysed to calculate compound IC50and Ki as follows: • 1. […] Percent activity was calculated for each well using: (Test well reading−MEAN100%inhibition control wells)/(MEAN0% inhibition control wells−MEAN100%inhibition control wells). • 5. Morrison Ki was determined using Morrison Ki equation (XL-fit).

CLK2 = molecular target: T3, CLK2 (Homo sapiens, UniProt P49760); assay: Biochemical assay for inhibitors of CLK2 kinase activity (ADP-Glo); conditions: 20 nM CLK2, 50 μM peptide substrate, 100 μM ATP, read-out: Assay 2: CLK2 Enzyme IC50
T3 construct: purchased Carna Biosciences 04-127
Experimental: The inhibitory activity of putative kinase inhibitors and the potency of selected compounds were determined using ADP-GloTM assay. The kinase reaction was performed in the presence of excess peptide substrate and ATP at a concentration equivalent to Km. Upon termination of the kinase reaction, remaining ATP was depleted leaving only ADP reaction product, which was converted back to ATP with a coupled luciferin/luciferase reaction. The luminescent output from the coupled reaction was quantified and correlated with the kinase activity. […] The assay was conducted as follows: • 1. […] After 120 minutes, the reaction was stopped by addition of 5 pl ADP-Glo reagent (Promega V9102) and the plate incubated at RT for a further 60 minutes. • 5. 10 μL of Kinase Detection reagent (Promega V9102) was added to assay plate and incubated for a further 30 minutes prior to reading luminescence on an Envision (Perkin-Elmer). Data was analysed to calculate compound IC50and Ki as follows: • 1. […] Morrison Ki was determined using Morrison Ki equation (XL-fit).

T3 sequence (P49760 whole entry): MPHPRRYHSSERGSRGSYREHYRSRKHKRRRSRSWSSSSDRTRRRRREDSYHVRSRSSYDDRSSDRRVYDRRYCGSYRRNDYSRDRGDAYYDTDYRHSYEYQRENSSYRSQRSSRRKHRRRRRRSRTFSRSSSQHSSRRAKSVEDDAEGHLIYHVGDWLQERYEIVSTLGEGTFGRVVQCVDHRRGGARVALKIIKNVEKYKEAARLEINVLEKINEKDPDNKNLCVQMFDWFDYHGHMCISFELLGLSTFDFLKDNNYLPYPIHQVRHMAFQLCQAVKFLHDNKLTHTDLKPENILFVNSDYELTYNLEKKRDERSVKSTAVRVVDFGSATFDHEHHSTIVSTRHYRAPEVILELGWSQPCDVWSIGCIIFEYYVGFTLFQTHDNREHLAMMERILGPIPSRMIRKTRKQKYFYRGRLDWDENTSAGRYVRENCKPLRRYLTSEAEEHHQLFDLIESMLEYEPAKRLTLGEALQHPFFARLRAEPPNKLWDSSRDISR
T1 sequence (P19784 whole entry, the tested form may be a part): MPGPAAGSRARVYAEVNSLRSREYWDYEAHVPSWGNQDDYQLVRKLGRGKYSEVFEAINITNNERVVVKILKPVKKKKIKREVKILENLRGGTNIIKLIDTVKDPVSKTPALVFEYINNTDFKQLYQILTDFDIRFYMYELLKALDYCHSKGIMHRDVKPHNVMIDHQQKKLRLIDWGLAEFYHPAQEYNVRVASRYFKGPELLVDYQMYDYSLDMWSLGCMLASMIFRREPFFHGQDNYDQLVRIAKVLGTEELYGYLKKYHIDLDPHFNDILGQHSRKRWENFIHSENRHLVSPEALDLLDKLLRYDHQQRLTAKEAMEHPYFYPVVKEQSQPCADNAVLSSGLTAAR

Row | SMILES | IC50 (intracellular CK2α) | IC50 (CK2α) | IC50 (CLK2)
1 | N#Cc1cc(NCCOCCCCNCc2cc(F)c(OC(F)(F)F)c(F)c2)c2cn[nH]c2c1 [Example 167, 4-((2-(4-((3,5-difluoro-4-(trifluoromethoxy)benzyl)amino)butoxy)ethyl)amino)-1H-indazole-6-carbonitrile] | 0.831 µM | 21 nM | 774 nM
2 | Fc1cc(CNCCCCOC2CN(c3cc(-n4cnnc4)cc4[nH]ncc34)C2)ccc1OC(F)(F)F [Example 129, 4-((6-(6-(4H-1,2,4-triazol-4-yl)-1H-indazol-4-yl)azetidine-3-yl)oxy)-N-(3-fluoro-4-(trifluoromethoxy)benzyl)butan-1-amine] | > 50 µM | 23.5 nM | 494 nM
3 | Cc1nc[nH]c1-c1cc(NCCCNC(=O)CCNCc2ccc(-c3ccccc3)c(Cl)c2)c2cn[nH]c2c1 [Example 91, 3-(((2-chloro-[1,1′-biphenyl]-4-yl)methyl)amino)-N-(3-((6-(4-methyl-1H-imidazol-5-yl)-1H-indazol-4-yl)amino)propyl)propanamide] | 4.59 µM | 4.17 nM | 979 nM
4 | COc1cc(-c2cc(NCCOCCCCNCc3cc4cc(C(F)(F)F)ccc4[nH]3)c3cn[nH]c3c2)ccn1 [Example 87, 6-(2-methoxypyridin-4-yl)-N-(2-(4-(((5-(trifluoromethyl)-1H-indol-2-yl)methyl)amino)butoxy)ethyl)-1H-indazol-4-amine] | 1.3 µM | 12.3 nM | 1760 nM
5 | FC(F)(F)c1ccc2[nH]c(CNCCCCOC3CN(c4cc(-c5ccnnc5)cc5[nH]nnc45)C3)cc2c1 [Example 149, 4-((1-(6-(pyridazin-4-yl)-1H-benzo[d][1,2,3]triazol-4-yl)azetidin-3-yl)oxy)-N-((5-(trifluoromethyl)-1H-indol-2-yl)methyl)butan-1-amine] | > 50 µM | 255 nM | 15300 nM
6 | Clc1ccc2nc(CNCCCCOCCNc3cc(-n4cnnc4)cc4[nH]ncc34)[nH]c2c1 [Example 23, N-(2-(4-(((6-chloro-1H-benzo[d]imidazol-2-yl)methyl)amino)butoxy)ethyl)-6-(4H-1,2,4-triazol-4-yl)-1H-indazol-4-amine] | 17.5 µM | 19.9 nM | 86.1 nM
7 | FC(F)(F)c1ccc2[nH]c(CNCCCCOC3CN(c4cc(-n5cnnc5)cc5[nH]ncc45)C3)cc2c1 [Example 128, 4-((1-(6-(4H-1,2,4-triazol-4-yl)-1H-indazol-4-yl)azetidin-3-yl)oxy)-N-((5-(trifluoromethyl)-1H-indol-2-yl)methyl)butan-1-amine] | > 50 µM | 3.96 nM | 187 nM
8 | O=C(CCNCc1ccc(OC(F)(F)F)c(Cl)c1)NCCCNCc1cc(-n2cnnc2)cc2[nH]ncc12 [Example 172, N-(3-(((6-(4H-1,2,4-triazol-4-yl)-1H-indazol-4-yl)methyl)amino)propyl)-3-((3-chloro-4-(trifluoromethoxy)benzyl)amino)propanamide] | > 50 µM | 126 nM | 44600 nM
9 | OCc1cc(CNC2CC(COCCNc3cc(-c4cnns4)cc4[nH]ncc34)C2)cc(OC(F)(F)F)c1 (stereo not drawn) [Example 203, (3-(((3-((2-((6-(1,2,3-thiadiazol-5-yl)-1H-indazol-4-yl)amino)ethoxy)methyl)cyclobutyl)amino)methyl)-5-(trifluoromethoxy)phenyl)methanol] | 0.546 µM | 36.1 nM | 307 nM
10 | O=C(CCNCc1ccc(OC(F)(F)F)c(Cl)c1)NCCCNc1cc(-c2ccncc2)c(Cl)c2[nH]ncc12 [Example 158, 3-((3-chloro-4-(trifluoromethoxy)benzyl)amino)-N-(3-((7-chloro-6-(pyridin-4-yl)-1H-indazol-4-yl)amino)propyl)propanamide] | 0.738 µM | 11 nM | 614 nM
11 | Cc1[nH]ncc1-c1cc(NCCCNC(=O)CCNCc2ccc(OC(F)(F)F)c(Cl)c2)c2cn[nH]c2c1 [Example 159, 3-((3-chloro-4-(trifluoromethoxy)benzyl)amino)-N-(3-((6-(5-methyl-1H-pyrazol-4-yl)-1H-indazol-4-yl)amino)propyl)propanamide] | 0.703 µM | 1.93 nM | 64.3 nM

Results, then the compound that gave them:

Row | IC50 (intracellular CK2α) | IC50 (CK2α) | IC50 (CLK2) | SMILES
12 | 9.89 µM | 3.32 nM | 70.8 nM | O=C(CCNCc1n[nH]c(-c2ccccc2)c1Cl)NCCCNc1cc(-n2cnnc2)cc2[nH]ncc12 [Example 34, N-(3-((6-(4H-1,2,4-triazol-4-yl)-1H-indazol-4-yl)amino)propyl)-3-(((4-chloro-5-phenyl-1H-pyrazol-3-yl)methyl)amino)propanamide]
13 | > 50 µM | 472 nM | > 50000 nM | O=C(CCNCc1ccc(-c2ccccc2)c(Cl)c1)NCCCNc1cc(N2CCOCC2)cc2[nH]ncc12 [Example 78, 3-(((2-chloro-[1,1′-biphenyl]-4-yl)methyl)amino)-N-(3-((6-morpholino-1H-indazol-4-yl)amino)propyl)propanamide]
14 | 16.8 µM | 1.46 nM | 39.6 nM | O=C(CCNCc1ccc(OC(F)(F)F)c(CO)c1)NCCCNc1cc(-n2cnnc2)cc2[nH]ncc12 [Example 44, N-(3-((6-(4H-1,2,4-triazol-4-yl)-1H-indazol-4-yl)amino)propyl)-3-((3-(hydroxymethyl)-4-(trifluoromethoxy)benzyl)amino)propanamide]
15 | 2.06 µM | 2.77 nM | 17800 nM | N#CCc1cc(CNCCCCOCCNc2cc(-n3cnnc3)cc3[nH]nnc23)cc(OC(F)(F)F)c1 [Example 141, 2-(3-(((4-(2-((6-(4H-1,2,4-triazol-4-yl)-1H-benzo[d][1,2,3]triazol-4-yl)amino)ethoxy)butyl)amino)methyl)-5-(trifluoromethoxy)phenyl)acetonitrile]
16 | 4.9 µM | 45.3 nM | 23300 nM | Fc1cc(CNCCCCOCCNCc2cc(-n3cnnc3)cc3[nH]ncc23)cc(F)c1OC(F)(F)F [Example 171, 4-(2-(((6-(4H-1,2,4-triazol-4-yl)-1H-indazol-4-yl)methyl)amino)ethoxy)-N-(3,5-difluoro-4-(trifluoromethoxy)benzyl)butan-1-amine]
17 | > 50 µM | 163 nM | 4160 nM | O=C(Cc1nnc(CCNCc2ccc(OC(F)(F)F)c(Cl)c2)[nH]1)Nc1cc(-n2cnnc2)cc2[nH]ncc12 [Example 65, N-(6-(4H-1,2,4-triazol-4-yl)-1H-indazol-4-yl)-2-(5-(2-((3-chloro-4-_(trifluoromethoxy)benzyl)amino)ethyl)-4H-1,2,4-triazol-3-yl)acetamide]
